Source: patent US10877035B2, “Advanced drug development and manufacturing” (ICAGEN, LLC, priority 2006, dated 2020)

Experiments:
[1] = target: T1, COX-2 (Canis lupus familiaris, UniProt Q8SPQ9); conditions: canine, relative to COX-1 column; cited from earlier work
T1 sequence (Q8SPQ9 18-604): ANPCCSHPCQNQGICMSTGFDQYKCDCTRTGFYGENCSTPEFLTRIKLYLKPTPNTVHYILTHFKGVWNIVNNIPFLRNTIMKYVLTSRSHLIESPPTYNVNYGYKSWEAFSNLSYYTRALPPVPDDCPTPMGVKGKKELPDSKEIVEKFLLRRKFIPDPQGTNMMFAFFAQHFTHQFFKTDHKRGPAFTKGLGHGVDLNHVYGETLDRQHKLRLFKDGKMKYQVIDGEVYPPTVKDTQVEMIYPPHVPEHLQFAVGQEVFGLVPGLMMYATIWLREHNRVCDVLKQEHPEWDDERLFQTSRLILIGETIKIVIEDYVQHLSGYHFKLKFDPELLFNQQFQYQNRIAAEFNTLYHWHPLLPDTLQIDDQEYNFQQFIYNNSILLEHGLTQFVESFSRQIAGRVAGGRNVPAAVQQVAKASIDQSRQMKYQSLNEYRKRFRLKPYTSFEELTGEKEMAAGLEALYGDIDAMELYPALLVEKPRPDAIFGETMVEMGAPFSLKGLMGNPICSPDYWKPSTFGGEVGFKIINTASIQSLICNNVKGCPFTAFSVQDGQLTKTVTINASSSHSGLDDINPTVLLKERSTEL

[2] = target: T2, COX-1 (Canis lupus familiaris, UniProt Q8HZR1); conditions: cited from earlier work
T2 sequence (Q8HZR1 28-603): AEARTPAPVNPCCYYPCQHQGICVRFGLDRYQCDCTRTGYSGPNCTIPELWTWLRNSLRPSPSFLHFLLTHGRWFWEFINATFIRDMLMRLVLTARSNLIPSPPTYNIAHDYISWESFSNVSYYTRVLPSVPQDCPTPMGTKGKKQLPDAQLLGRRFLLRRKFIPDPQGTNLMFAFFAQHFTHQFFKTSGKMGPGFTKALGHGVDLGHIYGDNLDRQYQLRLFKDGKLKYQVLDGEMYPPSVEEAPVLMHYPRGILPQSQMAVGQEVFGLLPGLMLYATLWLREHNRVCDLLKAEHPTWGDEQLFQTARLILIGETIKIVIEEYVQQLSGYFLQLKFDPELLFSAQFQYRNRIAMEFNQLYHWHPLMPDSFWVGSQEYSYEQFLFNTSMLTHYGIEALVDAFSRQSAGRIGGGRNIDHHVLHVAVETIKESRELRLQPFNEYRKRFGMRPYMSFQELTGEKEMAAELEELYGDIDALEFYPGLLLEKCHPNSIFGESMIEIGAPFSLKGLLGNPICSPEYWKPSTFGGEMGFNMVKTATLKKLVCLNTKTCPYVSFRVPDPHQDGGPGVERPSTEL

[3] = target: T3, tetrameric avidin (Gallus gallus, UniProt P02701); conditions: previous studies; cited from earlier work
T3 construct: purchased Sigma-Aldrich
T3 sequence (P02701 25-152): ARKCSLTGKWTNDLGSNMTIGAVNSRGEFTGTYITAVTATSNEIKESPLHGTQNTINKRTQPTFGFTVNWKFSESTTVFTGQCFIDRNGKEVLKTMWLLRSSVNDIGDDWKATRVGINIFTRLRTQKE

[4] = target: T3, tetrameric avidin; assay: RPM (x-ray fluorescence) measurement of sulfur in avidin-biotin complex versus avidin; format: binding; conditions: 500 micrograms avidin, 0.20 millimolar biotin, pH 8.0, after ultrafiltration
Excerpt: Previous studies have shown that the ratio of sulfur in avidin-biotin:avidin is 19.5:16, or 1.22, see Green N. Mex. Purification of Avidin. Meth Enzymol. 1970, XVIII(A):414-417. […] We treated an avidin control sample identically. We used RPM to measure the sulfur content of the avidin-biotin complex and the avidin. We confirmed that the amount of avidin in each sample was identical using bicinchoninic acid protein assay kit (Pierce). As predicted, the avidin-biotin complex contained 1.2 times the sulfur than the avidin alone as measured by RPM.

[5] = target: avidin (Gallus gallus, UniProt P02701); conditions: 200 micrograms avidin and 0.20 millimolar LPA, same filtering
Chain of avidin (P02701 25-152): as above
Experimental: […] We diluted this sample to 0.75 ml in TRIS buffer (pH 8.0), centrifuged for 2 hours at 7000 g, and repeated this process twice.

For `CC(C(=O)O)c1cccc(C(=O)c2ccccc2)c1` (stereo not drawn) [Ketoprofen], the “selectivity data, COX-2” value [1] is listed as “.6”, the “selectivity in favor of COX-1 versus COX-2” value ([2]; according to TABLE 3) is listed as 1 to 0.6 and the “selectivity data, COX-1” value ([2]; canine, relative to COX-2 column) is listed as 1.
For `O=C(O)CCCC[C@@H]1SC[C@@H]2NC(=O)N[C@@H]21` [biotin], the “ratio of sulfur in avidin-biotin:avidin” value [3] is given as 1.22 and the “sulfur in avidin-biotin complex relative to avidin alone as measured by RPM” value [4] is given as 1.2 times.
With leucine phosphonic acid [LPA] the “phosphorus observed in control samples” value [5] was “no phosphorus was observed”.
